{
  "source": "paper PMC4917279",
  "about": "(Journal of Medicinal Chemistry, 2016)",
  "assay_in_all_cases": "KINOMEscan",
  "assay_type_in_all_cases": "binding",
  "details_in_all_cases": "read-out: %Ctrl @ 1000 nM",
  "key": {"[1]": {"molecular_target": "T1, RSK2(Kin.Dom.2-C-terminal) (Homo sapiens, UniProt P51812)", "T1 construct": "RSK2(Kin.Dom.2-C-terminal); purchased DiscoveRx KINOMEscan"}, "PIK3CA(E542K)": {"molecular_target": "T2, PIK3CA(E542K) (Homo sapiens, UniProt P42336, E542K)", "T2 construct": "purchased DiscoveRx KINOMEscan", "T2 sequence (P42336 whole entry E542K)": "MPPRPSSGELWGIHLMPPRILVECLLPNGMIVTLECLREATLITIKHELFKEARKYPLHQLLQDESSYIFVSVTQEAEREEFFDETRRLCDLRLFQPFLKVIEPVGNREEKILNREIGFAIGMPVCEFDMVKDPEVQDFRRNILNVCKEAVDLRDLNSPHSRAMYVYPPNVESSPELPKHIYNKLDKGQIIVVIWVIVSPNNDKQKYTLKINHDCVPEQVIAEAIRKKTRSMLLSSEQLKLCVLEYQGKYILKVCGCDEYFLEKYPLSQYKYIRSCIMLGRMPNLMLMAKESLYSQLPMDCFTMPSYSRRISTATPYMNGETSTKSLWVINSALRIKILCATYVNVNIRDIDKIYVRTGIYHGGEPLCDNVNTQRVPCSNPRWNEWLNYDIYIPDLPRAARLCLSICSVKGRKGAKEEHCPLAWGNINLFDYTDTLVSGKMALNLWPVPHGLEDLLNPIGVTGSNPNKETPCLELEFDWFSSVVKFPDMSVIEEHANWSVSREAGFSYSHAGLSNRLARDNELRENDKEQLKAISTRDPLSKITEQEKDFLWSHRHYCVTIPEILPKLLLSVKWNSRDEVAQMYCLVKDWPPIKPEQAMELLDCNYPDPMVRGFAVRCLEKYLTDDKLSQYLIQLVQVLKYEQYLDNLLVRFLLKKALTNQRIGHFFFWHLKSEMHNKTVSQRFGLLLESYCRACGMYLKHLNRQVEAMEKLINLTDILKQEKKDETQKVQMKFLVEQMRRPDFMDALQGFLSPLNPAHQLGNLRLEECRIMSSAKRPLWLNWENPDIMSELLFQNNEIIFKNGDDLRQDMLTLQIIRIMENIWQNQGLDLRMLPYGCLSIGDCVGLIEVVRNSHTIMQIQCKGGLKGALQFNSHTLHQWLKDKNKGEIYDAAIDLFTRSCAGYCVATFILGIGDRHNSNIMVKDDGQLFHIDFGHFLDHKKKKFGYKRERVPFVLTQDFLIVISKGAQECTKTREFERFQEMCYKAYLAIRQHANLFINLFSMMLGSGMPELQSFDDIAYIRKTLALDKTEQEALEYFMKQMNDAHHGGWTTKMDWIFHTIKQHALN"}, "ULK3": {"molecular_target": "T3, ULK3 (Homo sapiens, UniProt Q6PHR2)", "T3 construct": "purchased DiscoveRx KINOMEscan"}, "CAMK4": {"molecular_target": "T4, CAMK4 (Homo sapiens, UniProt Q16566)", "T4 construct": "purchased DiscoveRx KINOMEscan"}, "ALK(L1196M)": {"molecular_target": "T5, ALK(L1196M) (Homo sapiens, UniProt Q9UM73, L1196M)", "T5 construct": "purchased DiscoveRx KINOMEscan"}, "ARK5": {"molecular_target": "T6, ARK5 (Homo sapiens, UniProt O60285)", "T6 construct": "purchased DiscoveRx KINOMEscan"}, "PIP5K1C": {"molecular_target": "T7, PIP5K1C (Homo sapiens, UniProt O60331)", "T7 construct": "purchased DiscoveRx KINOMEscan"}, "STK39": {"molecular_target": "T8, STK39 (Homo sapiens, UniProt Q9UEW8)", "T8 construct": "purchased DiscoveRx KINOMEscan"}, "MAP4K4": {"molecular_target": "T9, MAP4K4 (Homo sapiens, UniProt O95819)", "T9 construct": "purchased DiscoveRx KINOMEscan"}, "MARK3": {"molecular_target": "T10, MARK3 (Homo sapiens, UniProt P27448)", "T10 construct": "purchased DiscoveRx KINOMEscan"}, "PRKD3": {"molecular_target": "T11, PRKD3 (Homo sapiens, UniProt O94806)", "T11 construct": "purchased DiscoveRx KINOMEscan"}, "EPHA7": {"molecular_target": "T12, EPHA7 (Homo sapiens, UniProt Q15375)", "T12 construct": "purchased DiscoveRx KINOMEscan", "T12 sequence (Q15375 28-998)": "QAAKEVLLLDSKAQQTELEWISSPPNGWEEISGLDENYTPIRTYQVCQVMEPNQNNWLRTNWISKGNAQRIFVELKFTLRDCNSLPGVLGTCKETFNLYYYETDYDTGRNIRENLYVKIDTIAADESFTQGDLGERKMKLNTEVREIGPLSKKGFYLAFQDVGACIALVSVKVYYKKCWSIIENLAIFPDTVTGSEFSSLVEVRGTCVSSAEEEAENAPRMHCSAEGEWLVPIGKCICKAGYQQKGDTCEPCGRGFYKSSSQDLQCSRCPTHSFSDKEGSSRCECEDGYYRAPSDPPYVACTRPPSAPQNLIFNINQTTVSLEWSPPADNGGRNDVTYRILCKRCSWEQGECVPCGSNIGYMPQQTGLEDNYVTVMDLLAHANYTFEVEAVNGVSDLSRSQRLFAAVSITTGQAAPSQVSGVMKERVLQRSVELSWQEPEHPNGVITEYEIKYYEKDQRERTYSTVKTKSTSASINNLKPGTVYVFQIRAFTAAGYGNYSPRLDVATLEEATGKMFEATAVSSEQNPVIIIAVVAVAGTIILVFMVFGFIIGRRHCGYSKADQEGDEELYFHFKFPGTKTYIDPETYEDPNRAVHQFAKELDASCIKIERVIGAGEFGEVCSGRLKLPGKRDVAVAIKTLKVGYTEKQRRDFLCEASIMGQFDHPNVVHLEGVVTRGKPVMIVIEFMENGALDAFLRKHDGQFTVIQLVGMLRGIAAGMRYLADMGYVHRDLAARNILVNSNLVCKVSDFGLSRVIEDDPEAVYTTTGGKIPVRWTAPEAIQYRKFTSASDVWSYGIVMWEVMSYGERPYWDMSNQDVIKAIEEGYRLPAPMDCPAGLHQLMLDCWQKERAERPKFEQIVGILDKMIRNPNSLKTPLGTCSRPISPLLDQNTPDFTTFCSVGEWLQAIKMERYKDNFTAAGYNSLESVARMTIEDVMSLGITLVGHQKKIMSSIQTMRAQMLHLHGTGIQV"}, "CSF1R-autoinhibited": {"molecular_target": "T13, CSF1R-autoinhibited (Homo sapiens, UniProt P07333)", "T13 construct": "purchased DiscoveRx KINOMEscan"}, "PIK3CA(Q546K)": {"molecular_target": "T14, PIK3CA(Q546K) (Homo sapiens, UniProt P42336, Q546K)", "T14 construct": "purchased DiscoveRx KINOMEscan", "T14 sequence (P42336 whole entry Q546K)": "as the sequence (P42336 whole entry E542K) above, with K542E, Q546K counted along it"}, "DAPK3": {"molecular_target": "T15, DAPK3 (Homo sapiens, UniProt O43293)", "T15 construct": "purchased DiscoveRx KINOMEscan"}, "MAP3K15": {"molecular_target": "T16, MAP3K15 (Homo sapiens, UniProt Q6ZN16)", "T16 construct": "purchased DiscoveRx KINOMEscan"}, "[2]": {"molecular_target": "T17, ABL1(H396P)-nonphosphorylated (Homo sapiens, UniProt P00519, H396P)", "T17 construct": "purchased DiscoveRx (KINOMEscan service)"}, "MET": {"molecular_target": "T18, MET (Homo sapiens, UniProt P08581)", "T18 construct": "purchased DiscoveRx KINOMEscan"}, "PRKD1": {"molecular_target": "T19, PRKD1 (Homo sapiens, UniProt Q15139)", "T19 construct": "purchased DiscoveRx KINOMEscan"}, "PIK3C2G": {"molecular_target": "T20, PIK3C2G (Homo sapiens, UniProt O75747)", "T20 construct": "purchased DiscoveRx KINOMEscan"}, "ERN1": {"molecular_target": "T21, ERN1 (Homo sapiens, UniProt O75460)", "T21 construct": "purchased DiscoveRx KINOMEscan", "T21 sequence (O75460 19-977)": "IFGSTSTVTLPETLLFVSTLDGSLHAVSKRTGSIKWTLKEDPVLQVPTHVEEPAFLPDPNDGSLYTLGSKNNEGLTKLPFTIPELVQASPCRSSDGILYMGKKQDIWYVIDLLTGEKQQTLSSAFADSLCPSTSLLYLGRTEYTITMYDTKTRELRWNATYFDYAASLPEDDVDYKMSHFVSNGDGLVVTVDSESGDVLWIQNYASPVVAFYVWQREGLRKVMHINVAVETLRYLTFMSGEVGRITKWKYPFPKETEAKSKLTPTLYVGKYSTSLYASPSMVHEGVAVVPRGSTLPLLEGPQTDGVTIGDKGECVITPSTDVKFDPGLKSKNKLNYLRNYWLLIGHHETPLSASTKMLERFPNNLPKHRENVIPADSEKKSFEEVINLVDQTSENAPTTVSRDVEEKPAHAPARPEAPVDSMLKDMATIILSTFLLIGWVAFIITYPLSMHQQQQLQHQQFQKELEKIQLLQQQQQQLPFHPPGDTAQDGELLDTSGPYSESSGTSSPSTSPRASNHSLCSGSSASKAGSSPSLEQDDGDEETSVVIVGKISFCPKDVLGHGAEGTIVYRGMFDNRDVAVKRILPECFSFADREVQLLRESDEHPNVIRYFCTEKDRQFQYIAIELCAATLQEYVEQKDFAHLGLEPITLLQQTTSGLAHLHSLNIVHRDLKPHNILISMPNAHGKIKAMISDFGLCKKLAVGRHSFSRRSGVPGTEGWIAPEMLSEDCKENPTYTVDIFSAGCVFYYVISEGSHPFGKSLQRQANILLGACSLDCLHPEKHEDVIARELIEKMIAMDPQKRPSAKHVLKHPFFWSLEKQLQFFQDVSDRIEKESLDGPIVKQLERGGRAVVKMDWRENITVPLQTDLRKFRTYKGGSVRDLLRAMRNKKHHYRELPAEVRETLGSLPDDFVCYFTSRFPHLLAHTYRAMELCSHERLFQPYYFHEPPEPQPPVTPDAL"}, "PIK3CA(I800L)": {"molecular_target": "T22, PIK3CA(I800L) (Homo sapiens, UniProt P42336, I800L)", "T22 construct": "purchased DiscoveRx KINOMEscan", "T22 sequence (P42336 whole entry I800L)": "as the sequence (P42336 whole entry E542K) above, with K542E, I800L counted along it"}, "PDPK1": {"molecular_target": "T23, PDPK1 (Homo sapiens, UniProt O15530)", "T23 construct": "purchased DiscoveRx KINOMEscan"}, "[3]": {"molecular_target": "T24, TYK2(JH1domain-catalytic) (Homo sapiens, UniProt P29597)", "T24 construct": "TYK2(JH1domain-catalytic); purchased DiscoveRx KINOMEscan", "T24 sequence (P29597 871-1187 limits assumed)": "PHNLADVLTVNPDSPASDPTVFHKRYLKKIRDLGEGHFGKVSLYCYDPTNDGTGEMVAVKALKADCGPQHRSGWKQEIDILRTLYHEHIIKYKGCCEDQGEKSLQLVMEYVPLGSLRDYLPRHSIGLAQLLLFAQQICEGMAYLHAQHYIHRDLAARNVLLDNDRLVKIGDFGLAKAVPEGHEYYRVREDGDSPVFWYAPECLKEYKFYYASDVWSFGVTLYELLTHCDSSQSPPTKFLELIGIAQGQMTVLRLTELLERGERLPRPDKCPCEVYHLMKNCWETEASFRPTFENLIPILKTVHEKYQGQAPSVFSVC"}, "CSNK1D": {"molecular_target": "T25, CSNK1D (Homo sapiens, UniProt P48730)", "T25 construct": "purchased DiscoveRx KINOMEscan"}, "ICK": {"molecular_target": "T26, ICK (Homo sapiens, UniProt Q9UPZ9)", "T26 construct": "purchased DiscoveRx KINOMEscan"}, "TIE1": {"molecular_target": "T27, TIE1 (Homo sapiens, UniProt P35590)", "T27 construct": "purchased DiscoveRx KINOMEscan"}, "FLT4": {"molecular_target": "T28, FLT4 (Homo sapiens, UniProt P35916)", "T28 construct": "purchased DiscoveRx KINOMEscan"}, "PRP4": {"molecular_target": "T29, PRP4 (Homo sapiens, UniProt Q13523)", "T29 construct": "purchased DiscoveRx KINOMEscan", "procedure": "(§1) 1.1. Table S1 KINOMEscan Data. The KINOMEscan was performed at DiscoveRx. For\n(§2) a more detailed description of this assay technology, see: Fabian, M. A.; Biggs, W.\n(§3) H., III; Treiber, D. K.; Atteridge, C. E.; Azimioara, M. D.; Benedetti, M. G.; Carter,\n(§4) T. A.; Ciceri, P.; Edeen, P. T.; Floyd, M.; Ford, J. M.; Galvin, M.; Gerlach, J. L.;\n(§5) Grotzfeld, R. M.; Herrgard, S.; Insko, D. E.; Insko, M. A.; Lai, A. G.; Lélias, J..M.;\n(§6) Mehta, S. A.; Milanov, Z. V.; Velasco, A. M.; Wodicka, L. M.; Patel, H. K.;\n(§7) Zarrinkar, P. P.; Lockhart, D. J. A small molecule–kinase interaction map for clinical\n(§8) Target Gene Symbol %Ctrl @ 1000 nM BAY-598\n(§9) ABL1(H396P)-nonphosphorylated 92\n(§10) ABL1(Q252H)-nonphosphorylated 66\n(§11) ABL1(T315I)-nonphosphorylated 77\n(§12) ABL1-nonphosphorylated 79"}, "CDC2L5": {"molecular_target": "T30, CDC2L5 (Homo sapiens, UniProt Q14004)", "T30 construct": "purchased DiscoveRx KINOMEscan", "T30 sequence (Q14004 whole entry)": "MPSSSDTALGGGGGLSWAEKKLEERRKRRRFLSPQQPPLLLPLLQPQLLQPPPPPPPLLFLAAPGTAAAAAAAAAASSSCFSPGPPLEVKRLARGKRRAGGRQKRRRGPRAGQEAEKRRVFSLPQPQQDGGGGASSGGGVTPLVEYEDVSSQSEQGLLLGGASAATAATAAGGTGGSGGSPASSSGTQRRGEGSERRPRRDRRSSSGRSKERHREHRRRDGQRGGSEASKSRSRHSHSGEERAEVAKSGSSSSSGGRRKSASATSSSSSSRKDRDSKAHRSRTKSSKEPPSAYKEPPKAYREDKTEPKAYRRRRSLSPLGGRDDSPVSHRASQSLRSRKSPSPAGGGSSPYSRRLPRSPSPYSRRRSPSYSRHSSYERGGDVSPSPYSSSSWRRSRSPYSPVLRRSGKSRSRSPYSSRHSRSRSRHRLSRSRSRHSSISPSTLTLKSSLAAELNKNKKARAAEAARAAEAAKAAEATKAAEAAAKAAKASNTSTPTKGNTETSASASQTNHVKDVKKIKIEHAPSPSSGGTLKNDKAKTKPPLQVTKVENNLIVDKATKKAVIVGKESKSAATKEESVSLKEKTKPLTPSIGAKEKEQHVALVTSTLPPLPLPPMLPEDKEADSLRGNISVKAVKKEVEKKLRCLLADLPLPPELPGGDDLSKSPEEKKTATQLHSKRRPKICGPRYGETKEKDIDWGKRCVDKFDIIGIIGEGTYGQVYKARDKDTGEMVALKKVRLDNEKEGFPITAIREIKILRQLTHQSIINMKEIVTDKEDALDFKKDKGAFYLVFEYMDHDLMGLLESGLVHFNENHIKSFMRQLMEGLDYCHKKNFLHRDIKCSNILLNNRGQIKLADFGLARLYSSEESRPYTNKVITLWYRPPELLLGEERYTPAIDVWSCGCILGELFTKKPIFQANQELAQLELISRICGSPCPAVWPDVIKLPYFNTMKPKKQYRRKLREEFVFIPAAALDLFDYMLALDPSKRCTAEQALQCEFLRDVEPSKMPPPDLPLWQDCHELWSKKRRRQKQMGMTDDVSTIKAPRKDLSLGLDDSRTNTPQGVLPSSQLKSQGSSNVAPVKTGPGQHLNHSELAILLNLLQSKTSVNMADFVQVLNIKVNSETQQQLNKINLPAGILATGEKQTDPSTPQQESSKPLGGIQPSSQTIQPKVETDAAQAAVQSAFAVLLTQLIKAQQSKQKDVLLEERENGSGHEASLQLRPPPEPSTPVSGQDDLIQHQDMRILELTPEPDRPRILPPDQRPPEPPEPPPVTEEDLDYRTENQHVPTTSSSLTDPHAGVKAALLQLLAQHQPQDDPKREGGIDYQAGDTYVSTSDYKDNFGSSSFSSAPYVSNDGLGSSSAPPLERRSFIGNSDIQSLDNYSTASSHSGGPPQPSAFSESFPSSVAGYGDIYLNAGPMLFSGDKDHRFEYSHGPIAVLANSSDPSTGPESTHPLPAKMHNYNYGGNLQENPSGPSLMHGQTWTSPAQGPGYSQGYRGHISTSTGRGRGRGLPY", "procedure": "as §1, §2, §3, §4, §5, §6, §7, §8, §9, §10, §11, §12"}, "DYRK2": {"molecular_target": "T31, DYRK2 (Homo sapiens, UniProt Q92630)", "T31 construct": "purchased DiscoveRx KINOMEscan"}, "HPK1": {"molecular_target": "T32, HPK1 (Homo sapiens, UniProt Q92918)", "T32 construct": "purchased DiscoveRx KINOMEscan"}, "MAP4K2": {"molecular_target": "T33, MAP4K2 (Homo sapiens, UniProt Q12851)", "T33 construct": "purchased DiscoveRx KINOMEscan"}, "ERBB3": {"molecular_target": "T34, ERBB3 (Homo sapiens, UniProt P21860)", "T34 construct": "purchased DiscoveRx KINOMEscan"}, "BMPR2": {"molecular_target": "T35, BMPR2 (Homo sapiens, UniProt Q13873)", "T35 construct": "purchased DiscoveRx KINOMEscan"}, "PIK3CD": {"molecular_target": "T36, PIK3CD (Homo sapiens, UniProt O00329)", "T36 construct": "purchased DiscoveRx KINOMEscan"}},
  "data": [
    {"smiles": "CCN(C(=O)CO)[C@H]1CN(/C(=N\\C#N)Nc2cccc(OC(F)F)c2)N=C1c1ccc(Cl)c(Cl)c1", "note": "[(S)-4]", "values": [
      {"measurement": "remaining binding at 1 µM", "setting": "[1]", "result": 100, "unit": "%"},
      {"measurement": "remaining binding at 1 µM", "setting": "PIK3CA(E542K)", "result": 92, "unit": "%"},
      {"measurement": "remaining binding at 1 µM", "setting": "ULK3", "result": 74, "unit": "%"},
      {"measurement": "remaining binding at 1 µM", "setting": "CAMK4", "result": 82, "unit": "%"},
      {"measurement": "remaining binding at 1 µM", "setting": "ALK(L1196M)", "result": 92, "unit": "%"},
      {"measurement": "remaining binding at 1 µM", "setting": "ARK5", "result": 100, "unit": "%"},
      {"measurement": "remaining binding at 1 µM", "setting": "PIP5K1C", "result": 86, "unit": "%"},
      {"measurement": "remaining binding at 1 µM", "setting": "STK39", "result": 77, "unit": "%"},
      {"measurement": "remaining binding at 1 µM", "setting": "MAP4K4", "result": 100, "unit": "%"},
      {"measurement": "remaining binding at 1 µM", "setting": "MARK3", "result": 69, "unit": "%"},
      {"measurement": "remaining binding at 1 µM", "setting": "PRKD3", "result": 99, "unit": "%"},
      {"measurement": "remaining binding at 1 µM", "setting": "EPHA7", "result": 91, "unit": "%"},
      {"measurement": "remaining binding at 1 µM", "setting": "CSF1R-autoinhibited", "result": 47, "unit": "%"},
      {"measurement": "remaining binding at 1 µM", "setting": "PIK3CA(Q546K)", "result": 86, "unit": "%"},
      {"measurement": "remaining binding at 1 µM", "setting": "DAPK3", "result": 94, "unit": "%"},
      {"measurement": "remaining binding at 1 µM", "setting": "MAP3K15", "result": 69, "unit": "%"},
      {"measurement": "remaining binding at 1 µM", "setting": "[2]", "result": 92, "unit": "%"},
      {"measurement": "remaining binding at 1 µM", "setting": "MET", "result": 100, "unit": "%"},
      {"measurement": "remaining binding at 1 µM", "setting": "PRKD1", "result": 86, "unit": "%"},
      {"measurement": "remaining binding at 1 µM", "setting": "PIK3C2G", "result": 77, "unit": "%"},
      {"measurement": "remaining binding at 1 µM", "setting": "ERN1", "result": 93, "unit": "%"},
      {"measurement": "remaining binding at 1 µM", "setting": "PIK3CA(I800L)", "result": 90, "unit": "%"},
      {"measurement": "remaining binding at 1 µM", "setting": "PDPK1", "result": 59, "unit": "%"},
      {"measurement": "remaining binding at 1 µM", "setting": "[3]", "result": 88, "unit": "%"},
      {"measurement": "remaining binding at 1 µM", "setting": "CSNK1D", "result": 100, "unit": "%"},
      {"measurement": "remaining binding at 1 µM", "setting": "ICK", "result": 99, "unit": "%"},
      {"measurement": "remaining binding at 1 µM", "setting": "TIE1", "result": 99, "unit": "%"},
      {"measurement": "remaining binding at 1 µM", "setting": "FLT4", "result": 87, "unit": "%"},
      {"measurement": "remaining binding at 1 µM", "setting": "PRP4", "result": 90, "unit": "%"},
      {"measurement": "remaining binding at 1 µM", "setting": "CDC2L5", "result": 81, "unit": "%"},
      {"measurement": "remaining binding at 1 µM", "setting": "DYRK2", "result": 100, "unit": "%"},
      {"measurement": "remaining binding at 1 µM", "setting": "HPK1", "result": 88, "unit": "%"},
      {"measurement": "remaining binding at 1 µM", "setting": "MAP4K2", "result": 96, "unit": "%"},
      {"measurement": "remaining binding at 1 µM", "setting": "ERBB3", "result": 84, "unit": "%"},
      {"measurement": "remaining binding at 1 µM", "setting": "BMPR2", "result": 100, "unit": "%"},
      {"measurement": "remaining binding at 1 µM", "setting": "PIK3CD", "result": 81, "unit": "%"}
    ]}
  ]
}
